Test results reported in patent US6762170B1, “2-(purin-9-yl)-tetrahydrofuran-3,4-diol derivatives” (SmithKlineBeecham Corporation, priority 1998, dated 2004).
Structures can show the parent of a compound that is named as a salt.

Experiments:
Type in all cases: cell-based
Adenosine 1 receptor = target: T1, Adenosine 1 receptor (Homo sapiens, UniProt P30542); assay: Agonist activity against adenosine 1 receptor subtype (CHO cells, forskolin-enhanced cAMP, SPAP reporter); details: EC50 ratio to NECA; transfected CHO cells, forskolin-enhanced cAMP reflected by SPAP
T1 construct: expressed in transfected cells; host or cells: Chinese hamster ovary (CHO) cells, co-transfected with a CRE-SPAP reporter
T1 sequence (P30542 1-326): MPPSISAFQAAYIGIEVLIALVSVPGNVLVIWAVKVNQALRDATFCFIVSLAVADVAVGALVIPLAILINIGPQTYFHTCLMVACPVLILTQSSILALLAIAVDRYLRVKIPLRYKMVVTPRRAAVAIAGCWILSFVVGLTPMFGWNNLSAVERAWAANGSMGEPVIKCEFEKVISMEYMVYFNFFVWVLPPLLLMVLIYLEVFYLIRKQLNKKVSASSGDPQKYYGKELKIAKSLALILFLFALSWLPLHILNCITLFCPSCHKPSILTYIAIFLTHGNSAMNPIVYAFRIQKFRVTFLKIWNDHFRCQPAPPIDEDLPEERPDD
Method: (§1) (1) Agonist Activity Against Adenosine 2a, Adenosine 1 and Adenosine 3 Receptor Subtypes.
(§2) Agonist selectivity of compounds against other human adenosine receptors is determined using Chinese hamster ovary (CHO) cells transfected with the gene for the relevant human adenosine receptor following a method based on that of Castanon and Spevak, 1994. The CHO cells are also transfected with cyclic AMP response elements promoting the gene for secreted placental alkaline phosphatase (SPAP) (Wood, 1995). The effect of test compounds may be determined by their effects on basal levels of cAMP (A2a) or on forskolin-enhanced cAMP (A1 and A3) as reflected by changes in levels of SPAP. EC50 values for compounds may then be determined as a ratio to that of the non-selective agonist N-ethyl carboxamide adenosine (NECA).
(§3) Values given in the Table are EC50 values as a ratio of that of NECA.

Adenosine 2a receptor = target: T2, Adenosine 2a receptor (Homo sapiens, UniProt P29274); assay: Agonist activity against adenosine 2a receptor subtype (CHO cells, cAMP response element/SPAP reporter); details: EC50 ratio to NECA; transfected CHO cells, basal cAMP reflected by SPAP
T2 construct: expressed in transfected cells; host or cells: Chinese hamster ovary (CHO) cells, co-transfected with a CRE-SPAP reporter
Method: as §1, §2, §3

Adenosine 3 receptor = target: T3, Adenosine 3 receptor (Homo sapiens, UniProt P0DMS8); assay: Agonist activity against adenosine 3 receptor subtype (CHO cells, forskolin-enhanced cAMP, SPAP reporter); details: EC50 ratio to NECA; transfected CHO cells, forskolin-enhanced cAMP reflected by SPAP
T3 construct: expressed in transfected cells; host or cells: Chinese hamster ovary (CHO) cells, co-transfected with a CRE-SPAP reporter
T3 sequence (P0DMS8 1-318): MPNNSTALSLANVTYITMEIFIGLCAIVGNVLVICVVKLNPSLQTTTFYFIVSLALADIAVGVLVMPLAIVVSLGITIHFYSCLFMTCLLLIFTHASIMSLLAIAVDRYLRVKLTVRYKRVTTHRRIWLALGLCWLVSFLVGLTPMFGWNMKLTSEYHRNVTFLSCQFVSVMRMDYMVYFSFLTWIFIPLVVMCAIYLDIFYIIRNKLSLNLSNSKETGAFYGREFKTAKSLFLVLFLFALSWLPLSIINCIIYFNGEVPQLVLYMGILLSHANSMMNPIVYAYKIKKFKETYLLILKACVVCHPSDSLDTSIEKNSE
Method: as §1, §2, §3

T2 sequence (P29274 whole entry): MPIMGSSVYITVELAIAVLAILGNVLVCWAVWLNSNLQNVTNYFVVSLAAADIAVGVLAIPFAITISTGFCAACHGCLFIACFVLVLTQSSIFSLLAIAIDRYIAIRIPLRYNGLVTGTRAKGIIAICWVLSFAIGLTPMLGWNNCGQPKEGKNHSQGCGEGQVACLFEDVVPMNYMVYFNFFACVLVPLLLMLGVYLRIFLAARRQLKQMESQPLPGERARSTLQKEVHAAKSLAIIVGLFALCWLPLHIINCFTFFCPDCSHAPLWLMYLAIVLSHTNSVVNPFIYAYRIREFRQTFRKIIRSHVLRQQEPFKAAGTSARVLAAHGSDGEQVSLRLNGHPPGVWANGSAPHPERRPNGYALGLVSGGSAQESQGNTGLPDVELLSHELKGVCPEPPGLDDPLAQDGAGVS

Row | A1 (EC50 values as a ratio of that of NECA) (Adenosine 1 receptor) | A2a (EC50 values as a ratio of that of NECA) (Adenosine 2a receptor) | A3 (EC50 values as a ratio of that of NECA) (Adenosine 3 receptor) | SMILES
1 | 21.37 | 1.03 | >303 | CCc1cc(C2OC(n3cnc4c(NC(CO)Cc5ccccc5)nc(NCCNc5ccccn5)nc43)C(O)C2O)on1 [Example 62, (2S,3S,4R,5R)-2-(3-Ethyl-isoxazol-5-yl)-5-{6-(1S-hydroxymethyl-2-phenyl-ethylamino)-2-[2-(pyridin-2-ylamino)-ethylamino]-purin-9-yl}-tetrahydro-furan-3,4-diol diformate]
2 | 101.31 | 5.19 | >525 | CCCc1cc(C2OC(n3cnc4c(NC(CC)CC)nc(NCCN5CCCCC5)nc43)C(O)C2O)on1.O=CO.O=CO [Example 56, (2R,3R,4S,5S)-2-[6-(1-Ethyl-propylamino)-2-(2-piperidin-yl-ethylamino)-purin-9-yl]-5-(3-propyl-isoxazol-5-yl)-tetrahydro-furan-3,4-diol diformate]
3 | 8026.2 | 9.17 | >254 | CCc1cc(C2OC(n3cnc4c(NCCC5CCCCC5)nc(NC(CO)Cc5ccccc5)nc43)C(O)C2O)on1 [Example 22, (2R,3R,4S,5S)-2-[6-(2-Cyclohexyl-ethylamino)-2-(1 S-hydroxy-methyl-2-phenyl-ethylamino)-purin-9-yl]-5-(3-ethyl-isoxazol-5-yl)-tetrahydro-furan-3,4-diol formate]
4 | 28.28 | 7.79 | >350 | CCc1cc(C2OC(n3cnc4c(NC(CC)CC)nc(NC5CCN(Cc6ccccc6)C5)nc43)C(O)C2O)on1 [Example 49, (2R,3R,4S,5S)-2-[2-(1-Benzyl-pyrrolidin-3S-1-ylamino)-6-(1-ethyl-propylamino)purin-9-yl]-5-(3-ethyl-isoxazol-5-yl)-tetrahydro-furan-3,4-diol formate]
5 | 88.9 | 0.43 | >545 | CCc1cc(C2OC(n3cnc4c(NCC(c5ccccc5)c5ccccc5)nc(NCCN5CCOCC5)nc43)C(O)C2O)on1 [Example 2, (2R,3R,4S,5S)-2-[6-(2,2-Diphenyl-ethylamino)-2-(2-morpholin-4-yl-ethylamino)-purin-9-yl]-5-(3-ethyl-isoxazol-5-yl)-tetrahydro-furan-3,4-diol diformate.]
6 | 132.3 | 2.05 | >323 | CCc1cc(C2OC(n3cnc4c(NC5CCSCC5)nc(NCCNC(=N)N)nc43)C(O)C2O)on1 (stereo not drawn) [Example 9, N-{2-[9-[5S-(3-Ethyl-isoxazol-5-yl)-3R,4S-dihydroxy-tetrahydro-furan-2R-yl]-6-tetrahydro-thiopyran-4-ylamino)-9H-purin-2-ylamino]-ethyl}-guanidine diformate]
7 | 442 | 0.35 | >1004 | CCc1cc([C@H]2O[C@@H](n3cnc4c(NCC(c5ccccc5)c5ccccc5)nc(NCCNc5ccccn5)nc43)[C@H](O)[C@@H]2O)on1.O=CO.O=CO [Example 16, (2R,3R,4S,5S)-2-{6-(2,2-Diphenyl-ethylamino)-2-[2-(pyridin-2-ylamino)-ethylamino]-purin-9-yl}-5-(3-ethyl-isoxazol-5-yl)-tetrahydro-furan-3,4-diol diformate]
8 | 128.9 | 2.11 | >229 | CCc1cc([C@H]2O[C@@H](n3cnc4c(NC(CC)CC)nc(NCCNc5ccccn5)nc43)[C@H](O)[C@@H]2O)on1.O=CO.O=CO [Example 53, (2S,3S,4R,5R)-2-(3-Ethyl-isoxazol-5-yl)-5-{6-(1-ethyl-propylamino)-2-[2-(pyridin-2-ylamino)-ethylamino]-purin-9-yl}-tetrahydro-furan-3,4-diol diformate]
9 | 60.30 | 30.23 | >113 | CCOC(=O)c1cc(C2OC(n3cnc4c(NC(CC)CC)nc(NCCc5cn(C)cn5)nc43)C(O)C2O)on1 (stereo not drawn) [Example 68, 5-(5R-{6-(1-Ethyl-propylamino)-2-[2-(1-methyl-1H-imidazol-4-yl)-ethylamino]-purin-9-yl}-3S,4R-dihydroxy-tetrahydro-furan-2S-yl)-isoxazole-3-carboxylic acid ethyl ester diformate]
10 | 155.3 | 0.175 | >353 | CCC(CC)Nc1nc(NCCN2CCCCC2)nc2c1ncn2C1OC(c2cc(C)no2)C(O)C1O.O=CO.O=CO [Example 55, (2R,3R,4S,5S)-2-[6-(1-Ethyl-propylamino)-2-(2-piperidin-1-yl-ethylamino)-purin-9-yl]-5-(3-methyl-isoxazol-5-yl)-tetrahydro-furan-3,4-diol diformate]
11 | 1172 | 0.34 | >298 | CCc1cc(C2OC(n3cnc4c(NCC(c5ccccc5)c5ccccc5)nc(NC(CO)Cc5ccccc5)nc43)C(O)C2O)on1 [Example 17, (2R,3R,4S,5S)-2-[6-(2,2-Diphenyl-ethylamino)-2-(1S-hydroxymethyl-2-phenyl-ethylamino)-purin-9-yl]-5-(3-ethyl-isoxazol-5-yl)-tetrahydro-furan-3,4-diol formate]
12 | 108.8 | 4.58 | >257 | CCc1cc([C@@H]2O[C@H](n3cnc4c(NC5CCSCC5)nc(NCCc5ccccn5)nc43)[C@@H](O)[C@H]2O)on1.O=CO.O=CO [Example 30, (2R,3R,4S,5S)-2-(3Ethyl-isoxazol-5-yl)-5-[2-(2-pyridin-2-yl-ethylamino)-6-(tetrahydro-thiopyran-4-ylamino)-purin-9-yl]-tetrahydro-furan-3,4-diol diformate]
13 | 70.53 | 3.38 | >88 | CCc1cc(C2OC(n3cnc4c(NC(CC)CC)nc(NCCNC(=N)N)nc43)C(O)C2O)on1 (stereo not drawn) [Example 40, N-{2-[9-[5S-(3-Ethyl-isoxazol-5-yl)-3R,4S-dihydroxy-tetrahydro-furan-2R-yl]6-(1-ethyl-propylamino)-9H-purin-2-ylamino]-ethyl}-guanidine diformate]
14 | 44.1 | 5.29 | >737 | CCc1cc(C2OC(n3cnc4c(NC(CC)CC)nc(NCCN5CCOCC5)nc43)C(O)C2O)on1.O=CO.O=CO [Example 38, (2S,3S,4R,5R)-2-(3Ethyl-isoxazol-5-yl)-5-[6(1-ethyl-propylamino)-2-(2-morpholin-4-yl-ethylamino)-purin-9-yl]-tetrahydro-furan-3,4-diol diformate]
15 | 2580 | 0.72 | >460 | CCc1cc(C2OC(n3cnc4c(N)nc(NCCc5ccc(S(N)(=O)=O)cc5)nc43)C(O)C2O)on1 (stereo not drawn) [Example 18, 4-(2-{6-Amino-9-[5S-(3-ethyl-isoxazol-5-yl)-3R,4S-dihydroxy-tetrahydro-furan-2R-yl]-9H-purin-2-ylamino}-benzenesulfonamide formate]

Row | SMILES | A1 (EC50 values as a ratio of that of NECA) (Adenosine 1 receptor) | A2a (EC50 values as a ratio of that of NECA) (Adenosine 2a receptor) | A3 (EC50 values as a ratio of that of NECA) (Adenosine 3 receptor)
16 | CCc1cc([C@H]2O[C@@H](n3cnc4c(NC(CC)CC)nc(NC5CCOCC5)nc43)[C@H](O)[C@@H]2O)on1.O=CO [Example 48, (2R,3R,4S,5S)-2-[2-(4-tetrahydropyranyl-amino)-6-(1-ethyl-propylamino)-purin-9-yl]-5-(3-ethyl-isoxazol-5-yl)-tetrahydro-furan-3,4-diol formate] | 177.71 | 11.48 | >363
